Test results taken from patent US20100183699A1, “COMPOSITIONS AND METHODS TO CROSS LINK POLYMER FIBERS” (priority 2009, published 2010).
Entries after “also recorded” stand apart in the source; their conditions may differ. Read-outs that look alike come from different tables or passages of the source. One block for each compound: values may come before it.

Key:
[1] = literature reports on alternative crosslinkers, cited from earlier work
[2] = tested on: cells; settings: cited from earlier work; for cytotoxicity: crosslinking agent
[3] = SEM fiber morphology after exposure to aqueous environment (water, DMEM); assay type: physicochemical; settings: genipin 0.03-0.1 M in absolute ethanol or isopropanol, crosslinking for 5 days
Description: All samples were imaged using a Scanning Electron Microscope (Leo 1530) and diameters of 100 randomly selected fibers were measured, per sample, using image processing software (ImageJ). One-way ANOVA using the Tukey test was used to compare the difference between the diameters of crosslinked samples (Dcrosslink) and after exposure to growth media for 1 and 3 days (Dfinal). If a significant difference existed, the percent swelling was then calculated using the equation: […]
The experimental parameters investigated were: solvent (isopropanol, ethanol), water content (0%, 1%, 3% and 5%) and reaction time (1, 3 and 5 days). All electrospun collagen fiber samples were exposed to air and the reaction temperature was maintained at 37° C. in an incubator. The genipin concentration was fixed at 11.3 mg of genipin per mg of collagen, which was sufficient for the crosslinking reaction to reach completion (Yao, C. H., et al., Materials Chemistry and Physics 2004, 83, (2-3), 204-208). After crosslinking, the collagen samples were washed in ethanol or isopropanol (depending on the solvent used) for further characterization.

SMILES: CCN=C=NCCCN(C)C [EDC, 1-ethyl-3-(3-dimethylaminopropyl) carbodiimide]
swelling / morphology of crosslinked collagen fibers in water [1]: significant degree of swelling

SMILES: O=C1CCC(=O)N1O [NHS, N-hydroxysuccinimide]
swelling / morphology of crosslinked collagen fibers in water [1]: significant degree of swelling

SMILES: O=CCCCC=O [glutaraldehyde, Glutaraldehyde]
swelling / morphology of crosslinked collagen fibers in water [1]: not very effective in controlling its swelling properties
swelling / morphology of crosslinked collagen fibers in water ([1]; listed as GA): failed to maintain collagen fiber morphology; also recorded: swell significantly in water
cytotoxicity [2]: highly cytotoxic

morphology and overall architecture of collagen nanofibers after exposure to water [3]: failed to maintain the morphology
SMILES: COC(=O)C1=CO[C@@H](O)[C@@H]2C(CO)=CC[C@H]12 [genipin]
cell proliferation ([2]; compared to glutaraldehyde): more stimulative to cell proliferation
cytotoxicity [2]: low cytotoxicity
